US9395375B2, “Method of treating sigma 1 receptor-expressing tumors with interleukin 24” (Research Foundation of the City University of New York, priority 2013, dated 2016)

B1: IL-24: member of the IL-10 cytokine family, immunomodulatory cytokine generated from Ad.IL-24 infection (protein, UniProt Q13007 52-206, looked up)
Interleukin-24: QEFHFGPCQVKGVVPQKLWEAFWAVKDTMQAQDNITSARLLQQEVLQNVSDAESCYLVHTLLEFYLKTVFKNYHNRTVEVRTLKSFSTLANNFVLIVSQLQPSQENEMFSIRDSAHRRFLLFRRAFKQLDVEAALTKALGEVDILLTWMQKFYKL

Columns and labels:
[1] = system: metastatic prostate cancer cell lines (LNCaP, DU145 and PC-3); assay: MTT cell viability assay after Ad.IL-24 infection with or without S1R agonist; assay type: cell-based, human
Text: (§1) Referring to FIG. 1A, FIG. 1B and FIG. 1C, to test this hypothesis Ad.IL-24 was used to treat normal human immortalized epithelial cells (RWPE1), and three metastatic prostate cancer cell lines (LNCaP, DU145 and PC-3) in the presence or absence of the specific S1R agonist, (+)SKF-10047, and measured cell viability and induction of apoptosis by MTT, clonogenic, and AnnexinV-FITC/PI assays. (+)SKF-10047 inhibited Ad.IL-24-mediated killing in PC-3, LNCaP and DU145 cells.
In FIG. 1A, cells were infected with 100 pfu/cell of Ad.vector or Ad.IL-24, and treated with or without 10 μM (+)-SKF10047—a S1R agonist. Cell viability was determined by MTT assay 4 days post-infection. MTT absorbance of untreated control cells was set at 1 to determine relative number of viable cells. […] In FIG. 1B, cells were incubated in the absence or presence of 10 μM (+)-SKF10047 after infection with Ad.IL-24. Forty-eight hours post-infection, percentage of apoptosis was determined by staining with AnnexinV-FITC/PI. […] In FIG. 1C, cells were incubated in the absence or presence of 10 μM (+)-SKF10047 after infection with Ad.IL-24. […]
MTT Assays. […] Cell growth and viable cell numbers were monitored by 3-(4,5 dimethylthiazol-2-yl)-2,5-diphenyltetrazolium bromide (MTT) staining as described in Sauane M, Su Z Z, Dash R, et al. “Ceramide plays a prominent role in MDA-7/IL-24-induced cancer-specific apoptosis” J Cell Physiol. […]

[2] = system: metastatic prostate cancer cell lines (LNCaP, DU145 and PC-3); assay: Clonogenic (colony formation) assay after Ad.IL-24 infection with or without S1R agonist; assay type: cell-based, human; conditions: Ad.IL-24 plus 10 μM (+)-SKF10047; 2 weeks
Text: as §1
(§2) In FIG. 1A, cells were infected with 100 pfu/cell of Ad.vector or Ad.IL-24, and treated with or without 10 μM (+)-SKF10047—a S1R agonist. Cell viability was determined by MTT assay 4 days post-infection. MTT absorbance of untreated control cells was set at 1 to determine relative number of viable cells. […] In FIG. 1B, cells were incubated in the absence or presence of 10 μM (+)-SKF10047 after infection with Ad.IL-24. Forty-eight hours post-infection, percentage of apoptosis was determined by staining with AnnexinV-FITC/PI. […] In FIG. 1C, cells were incubated in the absence or presence of 10 μM (+)-SKF10047 after infection with Ad.IL-24. Cells were subjected to clonogenic assay for 2 weeks. Results shown are an average of three independent experiments ±SD.
Colony formation assays. Cells were infected with 100 pfu/cell with Ad.vector or Ad.IL-24. The next day, 200 to 500 cells were seeded to determine colony-forming ability. […]

prostate DU145 = assay: Calcium imaging (Fura-2), cytosolic calcium; assay type: cell-based, human; conditions: Ad.IL-24 plus 10 μM (+)-SKF10047, 12 hours
Experimental: FIG. 2B depicts a ratio of calcium ratios for cells infected with 100 pfu/cell of Ad.vector or Ad.IL-24, and treated with or without 10 μM (+)-SKF10047. The ratios are the levels cytosolic calcium at T=0 and T=12 hours. A determination was made concerning whether Ad.IL-24 caused any changes in the cytosolic levels of Ca^++ in prostate cancer cells and if Ca^++ mobilization is S1R-dependent after Ad.IL-24 infection. Ad.IL-24 infection increased cytosolic Ca^++ levels in prostate DU145 within 12 hours. The increase in Ca^++ was blocked by S1R agonist (+)-SKF10047.
Calcium imaging. For Calcium (Ca^++) imaging, cells were plated in 35 mm glass bottom petri dishes (MatTek) and allowed to attach for 12 h prior to treatment(s). Inhibitors were added 4 h after infection with adenovirus. After 12 h, cells were then rinsed with a Ringer's solution maintained at 37° C. Cells were then incubated in Ringer's solution containing 0.5 μM Fura-2 tetra-acetoxymethyl ester (Fura-2) (Molecular Probes), 10% Pluronic F127 and 250 μm sulfinpyrazone (Sigma-Aldrich, Inc) for 40 min at 22° C. Fura-2 was excited by alternating 340 and 380 nm light and images were obtained every 50 ms as a measure of Ca^++ concentration. Background intensity was zero. […]

[3] = system: metastatic prostate cancer cell lines (LNCaP, DU145 and PC-3); assay: AnnexinV-FITC/PI apoptosis assay after Ad.IL-24 infection with or without S1R agonist; assay type: cell-based, human; conditions: for apoptosis by Ad.IL-24 (summary statements): prostate cancer cells, effect of S1R agonist
Text: as §1, §2
Annexin V binding assays. Cells were trypsinized, washed once with complete medium and PBS, resuspended in 0.5 ml of binding buffer containing 2.5 mmol/L CaCl2, and stained with allophycocyanin-labeled Annexin V (Becton Dickinson Biosciences, Palo Alto, Calif.) and propidium iodide (PI) for 15 min at room temperature. Flow cytometry assays were performed as described in Sauane M, Su Z Z, Dash R, et al. “Ceramide plays a prominent role in MDA-7/IL-24-induced cancer-specific apoptosis” J Cell Physiol. 2010 March; 222(3):546-55.

[4] = system: BiP, CHOP, and p-eIF2a proteins; assay: Western blot analysis of ER stress markers; assay type: cell-based; conditions: 100 pfu/cell Ad.IL-24 plus 10 μM (+)-SKF10047; 48 h
Experimental: Cells were infected with 100 pfu/cell of Ad.vector or Ad.IL-24, and treated with or without 10 μM (+)-SKF10047 (SKF) for indicated times. In FIG. 2A, changes in BiP, CHOP, and p-eIF2a proteins were evaluated by Western blot analysis 48 h after indicated treatments. […] Up-regulation by IL-24 of several ER stress markers is shown, including p-eIF2a, CHOP, and BiP, were inhibited by treatment with (+)SKF-10047.
Western Blot Analysis. Protein extracts were prepared with RIPA buffer containing a mixture of protease inhibitors as described in Sauane M, Su Z Z, Dash R, et al. “Ceramide plays a prominent role in MDA-7/IL-24-induced cancer-specific apoptosis” J Cell Physiol. 2010 March; 222(3):546-55. Fifty micrograms of protein was applied to a 12% SDS/PAGE and transferred to nitrocellulose membranes. The membranes were probed with polyclonal or monoclonal antibodies to IL-24, p-eIF2a, BiP, CHOP, Sigma 1 Receptor, and beta-actin.

DU-145 cells = assay: Reactive oxygen species (ROS) generation, DCFH-DA fluorescence; assay type: cell-based, human; conditions: Ad.IL-24 plus 10 μM (+)SKF-10047 for 24 h
Experimental: Intracellular ROS levels were measured with 10 μM DCF-DA 30 min after treatments. The results are expressed as the mean±S.D. of three independent experiments. The time course of mitochondrial changes (ROS generation) were determined after treatment of DU145 cells with Ad.IL-24. Cells were infected with Ad.IL-24, collected at 24 h, and stained for ROS production with dichlorofluorescin diacetate (DCFH-DA). […] Taken together, the inhibition by an S1R agonist of IL-24-mediated ER stress, Ca^++ mobilization and ROS production, further strengthen the hypothesis that IL-24 action in cancer cells is mediated by an antagonistic effect of IL-24 on S1R.
Assessment of reactive oxygen species (ROS) generation. DU-145 cells were seeded in 96-well plates at a concentration of 1×10^4 cells/well and were infected with Ad.IL-24 for 12 h. The cell cultures were treated with 10 μM 2,7-dichloro-fluorescein diacetate (DCFH-DA; Sigma-Aldrich, St. Louis, Mo.) in PBS for 30 min After incubation, the media was discarded, and the cells were washed with PBS. The fluorescence intensity was determined using a fluorescence plate reader at 485 nm for excitation and 530 nm for emission.

S1R [5] = target: T1, S1R (Homo sapiens, UniProt Q99720); assay: Immunofluorescence co-localization of IL-24 and S1R; assay type: cell-based; conditions: DU145 cells infected with Ad.IL-24; 24 h; confocal immunofluorescence
T1 construct: DU-145 cells were infected with Ad.IL-24; endogenous in cells; host or cells: DU145 cells (ATCC), infected with Ad.IL-24 or Ad.vector
T1 sequence (Q99720 whole entry): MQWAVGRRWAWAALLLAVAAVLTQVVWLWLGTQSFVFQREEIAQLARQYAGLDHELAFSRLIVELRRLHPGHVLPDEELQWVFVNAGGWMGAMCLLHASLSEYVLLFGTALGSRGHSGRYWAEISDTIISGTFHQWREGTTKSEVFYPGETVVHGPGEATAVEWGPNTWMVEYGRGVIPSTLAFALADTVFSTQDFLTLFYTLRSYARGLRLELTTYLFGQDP
Experimental: In FIG. 3A and FIG. 3B, comparative co-localization of IL-24 and S1R proteins was analyzed in DU145 cells after infection with the Ad.IL-24 virus. […] DU-145 cells were infected with Ad.IL-24. After 24 h, cells were fixed and IL-24 and S1R proteins were detected by immunofluorescence using anti-IL-24 and anti-S1R antibodies. The analysis of co-localization of IL-24 and S1R was performed using a DMI6000B inverted confocal microscope with TCS SP5 system (Leica Microsystems CMS). Without wishing to be bound to any particular theory, S1R is believed to interact with IL-24.
Immunofluorescence. Cells were seeded onto chamber slides (Falcon; BD Biosciences, San Jose, Calif.) and maintained in DMEM with 10% fetal bovine calf serum, 24 hours postinfection, cells were fixed with 2% paraformaldehyde, permeabilized by 0.1% Triton X-100, and then incubated with primary antibodies: IL-24, and S1R. Controls were incubated with only the secondary antibodies under the same experimental conditions.

S1R [6] = target: T1, S1R; assay: Co-immunoprecipitation of S1R with IL-24; assay type: binding; conditions: 100 pfu/cell Ad.IL-24, 48 hours
Experimental: In FIG. 3A, DU145 cells were infected with 100 pfu/cell of Ad.vector or Ad.IL-24 and immunoprecipitation analysis was done 48 hours later using S1R antibody.
In FIG. 3B, DU-145 cells were infected with 100 pfu/cell of Ad.vector or Ad.IL-24 and immunoprecipitation analysis was done 48 hours later using IL-24 antibody.
Co-immunoprecipitation of S1R with IL-24. Cells were infected with Ad.vector or Ad.IL-24. After 48 hours, protein was extracted from subconfluent cultures using lysis buffer (Pierce, Rockford, Ill.) containing 1 mM phenylmethlsulfonylfluoride (Sigma-Aldrich, Inc) and quantified using the BCA protein assay kit (Pierce, Rockford, Ill.). Antibodies were conjugated to Protein-G beads according, the Sigma Protein-G Immunoprecipitation Kit manufacturer's instructions (Sigma-Aldrich, Inc). Western blot analysis was done as described before using the following primary antibodies at 1:1,000 dilutions: anti-IL-24, and anti-S1R. Secondary antibodies specific for heavy chain of immunoglobulin G (IgG) were used as the light chain of IgG interfered with detection of IL-24 because of similar size.

Row | Molecule | cytotoxic effect of Ad.IL-24, cell viability by MTT (FIG. 1A) ([1]; 100 pfu/cell Ad.IL-24 plus 10 μM (+)-SKF10047, 4 days post-infection) | Ad.IL-24-mediated killing ([1]; PC-3, LNCaP and DU145 cells, viability and apoptosis by MTT, clonogenic and AnnexinV-FITC/PI assays, effect of S1R agonist) | cytotoxic effect of Ad.IL-24, clonogenic assay (FIG. 1C) [2] | increase in Ca++ after Ad.IL-24 infection (FIG. 2B) (prostate DU145) | cytotoxic effect of Ad.IL-24, percentage of apoptosis by AnnexinV-FITC/PI (FIG. 1B) ([3]; Ad.IL-24 plus 10 μM (+)-SKF10047, 48 hours post-infection) | apoptosis by Ad.IL-24 (summary statements) [3] | apoptosis by Ad.IL-24 (summary statements) ([3]; listed as (+) SK-10047) | Up-regulation by IL-24 of ER stress markers p-eIF2a, CHOP, and BiP (FIG. 2A) [4] | Ad.IL-24 increased ROS (FIG. 2C) (DU-145 cells) | co-localization with S1R (S1R [5]) | interaction with S1R: immunoprecipitation using anti-S1R antibody, immunoblotting with anti-IL-24 antibody (FIG. 3A) (S1R [6]; DU145 cells) | interaction with S1R: immunoprecipitation using anti-IL-24 antibody, probed with anti-S1R antibody (FIG. 3B) (S1R [6]; DU-145 cells)
1 | (+)-SKF10047 | substantially negated | inhibited | substantially negated | blocked | substantially negated | inhibits | blocks | inhibited | inhibited | – | – | –
2 | B1 | – | – | – | – | – | – | – | – | – | co-localized | physical interaction | coimmunoprecipitated
